{"source": "patent US20260234147A1", "about": "(priority 2023, published 2026)", "key": {"[1]": {"molecular_target": "T1, hMOR (Homo sapiens, UniProt P35372)", "T1 sequence (P35372 whole entry)": "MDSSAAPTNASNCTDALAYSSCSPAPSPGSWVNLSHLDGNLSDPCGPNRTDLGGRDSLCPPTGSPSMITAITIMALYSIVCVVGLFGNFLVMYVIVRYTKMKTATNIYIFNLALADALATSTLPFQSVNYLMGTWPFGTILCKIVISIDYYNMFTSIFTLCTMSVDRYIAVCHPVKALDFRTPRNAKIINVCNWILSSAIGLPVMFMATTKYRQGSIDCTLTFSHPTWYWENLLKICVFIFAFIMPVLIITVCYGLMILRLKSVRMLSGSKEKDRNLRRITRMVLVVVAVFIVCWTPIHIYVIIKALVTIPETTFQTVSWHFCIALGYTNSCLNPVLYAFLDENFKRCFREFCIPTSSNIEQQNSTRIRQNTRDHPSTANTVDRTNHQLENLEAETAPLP", "assay": "Radioligand binding assay (Eurofins Cerep), [3H]DAMGO displacement"}, "[2]": {"molecular_target": "hKOR (Homo sapiens, UniProt P41145)", "sequence (P41145 whole entry)": "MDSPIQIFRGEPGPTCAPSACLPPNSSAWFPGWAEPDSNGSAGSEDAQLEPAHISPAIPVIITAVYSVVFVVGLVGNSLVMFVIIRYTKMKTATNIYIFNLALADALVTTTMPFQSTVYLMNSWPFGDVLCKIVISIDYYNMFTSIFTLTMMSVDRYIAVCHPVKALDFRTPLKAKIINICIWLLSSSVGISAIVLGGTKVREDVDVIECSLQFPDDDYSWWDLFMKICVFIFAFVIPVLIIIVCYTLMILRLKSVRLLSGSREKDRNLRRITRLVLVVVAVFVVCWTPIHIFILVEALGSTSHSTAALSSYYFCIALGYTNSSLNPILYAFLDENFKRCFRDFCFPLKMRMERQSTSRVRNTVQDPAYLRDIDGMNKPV", "assay": "Radioligand binding assay (Eurofins Cerep), [3H]U69,593 displacement"}, "[3]": {"molecular_target": "hDOR (Homo sapiens, UniProt P41143)", "sequence (P41143 whole entry)": "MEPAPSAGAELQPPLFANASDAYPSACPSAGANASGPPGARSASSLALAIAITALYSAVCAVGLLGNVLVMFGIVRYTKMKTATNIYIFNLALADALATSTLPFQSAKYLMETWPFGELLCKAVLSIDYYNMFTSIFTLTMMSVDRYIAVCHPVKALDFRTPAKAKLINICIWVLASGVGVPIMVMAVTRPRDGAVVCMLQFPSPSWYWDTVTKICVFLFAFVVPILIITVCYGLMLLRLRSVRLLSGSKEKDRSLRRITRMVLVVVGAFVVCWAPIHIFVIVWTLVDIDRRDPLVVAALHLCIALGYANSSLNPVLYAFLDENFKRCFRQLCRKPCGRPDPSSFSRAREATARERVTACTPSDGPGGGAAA", "assay": "Radioligand binding assay (Eurofins Cerep), [3H]DADLE displacement"}, "[4]": {"molecular_target": "T2, α2A adrenergic receptor (Homo sapiens, UniProt P08913)", "T2 construct": "Eurofins Cerep (contract screening)", "T2 sequence (P08913 1-465)": "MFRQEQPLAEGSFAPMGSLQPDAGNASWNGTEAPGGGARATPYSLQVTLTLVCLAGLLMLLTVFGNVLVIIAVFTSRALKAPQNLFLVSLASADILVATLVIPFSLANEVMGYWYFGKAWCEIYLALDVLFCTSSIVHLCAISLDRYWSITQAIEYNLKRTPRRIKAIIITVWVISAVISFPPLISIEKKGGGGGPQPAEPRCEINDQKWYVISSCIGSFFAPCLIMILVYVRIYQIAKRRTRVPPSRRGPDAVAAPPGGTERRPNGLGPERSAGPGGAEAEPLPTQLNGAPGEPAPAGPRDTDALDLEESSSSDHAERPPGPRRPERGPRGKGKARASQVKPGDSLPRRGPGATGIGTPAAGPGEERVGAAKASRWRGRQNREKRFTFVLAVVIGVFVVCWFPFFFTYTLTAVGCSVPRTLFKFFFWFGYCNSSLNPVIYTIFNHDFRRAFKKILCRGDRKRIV", "assay": "Radioligand binding assay (Eurofins Cerep), [3H]RX 821002 displacement"}, "[5]": {"molecular_target": "T3, α2C adrenergic receptor (Homo sapiens, UniProt P18825)", "T3 construct": "Eurofins Cerep (contract screening)", "T3 sequence (P18825 1-462)": "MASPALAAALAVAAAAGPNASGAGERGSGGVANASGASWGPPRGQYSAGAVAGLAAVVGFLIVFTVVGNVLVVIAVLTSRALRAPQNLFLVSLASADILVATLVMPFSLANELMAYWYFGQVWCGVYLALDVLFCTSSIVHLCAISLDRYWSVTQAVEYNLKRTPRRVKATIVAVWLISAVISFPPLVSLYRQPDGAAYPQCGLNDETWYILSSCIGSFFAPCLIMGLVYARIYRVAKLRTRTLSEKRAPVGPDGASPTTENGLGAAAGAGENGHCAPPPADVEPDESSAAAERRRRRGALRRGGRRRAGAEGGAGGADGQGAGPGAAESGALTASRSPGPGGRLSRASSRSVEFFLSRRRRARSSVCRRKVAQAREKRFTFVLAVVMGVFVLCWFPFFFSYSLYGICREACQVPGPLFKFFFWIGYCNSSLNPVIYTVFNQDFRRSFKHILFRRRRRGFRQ", "assay": "Radioligand binding assay (Eurofins Cerep), [3H]RX 821002 displacement", "details": "Ki (nM ± SEM) a2C-AR, 3 independent experiments"}, "[6]": {"molecular_target": "T1, hMOR", "assay": "cell-based", "design": "expressed in transfected cells", "details": "for Emax: CHO"}, "[7]": {"details": "Table 3-7, human MOR, read-out: MOR Ki (nM ± SEM)"}, "[8]": {"details": "Table 3-1, 3 independent experiments, read-out: Ki (nM ± SEM) KOR"}, "[9]": {"details": "Table 3-1, 3 independent experiments, read-out: Ki (nM ± SEM) DOR"}}, "note": "Where two headings read alike, the source gives them in different places."}
{"smiles": "COC(=O)CC1CCN(CCc2c[nH]c3ccccc23)CC1", "note": "[Compound 3-24]", "values": [{"measurement": "SR: Selectivity Ratio (KiMOR/Kiα2A)", "setting": "[1]; Table 3-1", "result": 1.58}, {"measurement": "Ki", "setting": "[1]; Table 3-1, 3 independent experiments, read-out: Ki (nM ± SEM) MOR", "result": "2230 ± 42.6", "unit": "nM"}, {"measurement": "SR: Selectivity Ratio (KiMOR/Kiα2A)", "setting": "[1]; Table 3-2", "result": 1.58}, {"measurement": "Ki", "setting": "[1]; Table 3-2, 3 independent experiments, read-out: Ki (nM ± SEM) MOR", "result": "2230 ± 42.6", "unit": "nM"}, {"measurement": "SR: Selectivity Ratio (KiMOR/Kiα2A)", "setting": "[1]; Table 3-3", "result": 1.58}, {"measurement": "Ki", "setting": "[1]; Table 3-3, 3 independent experiments, read-out: Ki (nM ± SEM) MOR", "result": "2230 ± 42.6", "unit": "nM"}, {"measurement": "SR: Selectivity Ratio (KiMOR/Kiα2A)", "setting": "[1]; Table 3-4", "result": 1.58}, {"measurement": "Ki", "setting": "[1]; Table 3-4, 3 independent experiments, read-out: Ki (nM ± SEM) MOR", "result": "2230 ± 42.6", "unit": "nM"}, {"measurement": "SR: Selectivity Ratio (KiMOR/Kiα2A)", "setting": "[1]; Table 3-5", "result": 1.58}, {"measurement": "Ki", "setting": "[1]; Table 3-5, 3 independent experiments, read-out: Ki (nM ± SEM) MOR", "result": "2230 ± 42.6", "unit": "nM"}, {"measurement": "SR: Selectivity Ratio (KiMOR/Kiα2A)", "setting": "[1]; Table 3-6", "result": 1.58}, {"measurement": "Ki", "setting": "[1]; Table 3-6, 3 independent experiments, read-out: Ki (nM ± SEM) MOR", "result": "2230 ± 42.6", "unit": "nM"}, {"measurement": "Ki", "setting": "[1]; [7]", "result": "2230 ± 43", "unit": "nM"}, {"measurement": "Ki", "setting": "[2]; [8]", "result": "> 10000", "unit": "nM"}, {"measurement": "Ki", "setting": "[2]; Table 3-2, 3 independent experiments, read-out: Ki (nM ± SEM) KOR", "result": "> 10000", "unit": "nM"}, {"measurement": "Ki", "setting": "[2]; Table 3-3, 3 independent experiments, read-out: Ki (nM ± SEM) KOR", "result": "> 10000", "unit": "nM"}, {"measurement": "Ki", "setting": "[2]; Table 3-4, 3 independent experiments, read-out: Ki (nM ± SEM) KOR", "result": "> 10000", "unit": "nM"}, {"measurement": "Ki", "setting": "[2]; Table 3-5, 3 independent experiments, read-out: Ki (nM ± SEM) KOR", "result": "> 10000", "unit": "nM"}, {"measurement": "Ki", "setting": "[2]; Table 3-6, 3 independent experiments, read-out: Ki (nM ± SEM) KOR", "result": "> 10000", "unit": "nM"}, {"measurement": "Ki", "setting": "[3]; [9]", "result": "> 10000", "unit": "nM"}, {"measurement": "Ki", "setting": "[3]; Table 3-2, 3 independent experiments, read-out: Ki (nM ± SEM) DOR", "result": "> 10000", "unit": "nM"}, {"measurement": "Ki", "setting": "[3]; Table 3-3, 3 independent experiments, read-out: Ki (nM ± SEM) DOR", "result": "> 10000", "unit": "nM"}, {"measurement": "Ki", "setting": "[3]; Table 3-4, 3 independent experiments, read-out: Ki (nM ± SEM) DOR", "result": "> 10000", "unit": "nM"}, {"measurement": "Ki", "setting": "[3]; Table 3-5, 3 independent experiments, read-out: Ki (nM ± SEM) DOR", "result": "> 10000", "unit": "nM"}, {"measurement": "Ki", "setting": "[3]; Table 3-6, 3 independent experiments, read-out: Ki (nM ± SEM) DOR", "result": "> 10000", "unit": "nM"}, {"measurement": "Ki", "setting": "[4]; Ki (nM ± SEM) a2A-AR, Table 3-1, 3 independent experiments", "result": "1410 ± 122", "unit": "nM"}, {"measurement": "Ki", "setting": "[4]; Ki (nM ± SEM) a2A-AR, Table 3-2, 3 independent experiments", "result": "1410 ± 122", "unit": "nM"}, {"measurement": "Ki", "setting": "[4]; Ki (nM ± SEM) a2A-AR, Table 3-3, 3 independent experiments", "result": "1410 ± 122", "unit": "nM"}, {"measurement": "Ki", "setting": "[4]; Ki (nM ± SEM) a2A-AR, Table 3-4, 3 independent experiments", "result": "1410 ± 122", "unit": "nM"}, {"measurement": "Ki", "setting": "[4]; Ki (nM ± SEM) a2A-AR, Table 3-6, 3 independent experiments", "result": "1410 ± 122", "unit": "nM"}, {"measurement": "Ki", "setting": "[4]; Ki (nM ± SEM) a2A-ar, Table 3-5, 3 independent experiments", "result": "1410 ± 122", "unit": "nM"}, {"measurement": "Ki", "setting": "[5]; Table 3-2", "result": "> 10000", "unit": "nM"}, {"measurement": "Ki", "setting": "[5]; Table 3-3", "result": "> 10000", "unit": "nM"}, {"measurement": "Ki", "setting": "[5]; Table 3-4", "result": "> 10000", "unit": "nM"}, {"measurement": "Ki", "setting": "[5]; Table 3-5", "result": "> 10000", "unit": "nM"}, {"measurement": "Ki", "setting": "[5]; Table 3-6", "result": "> 10000", "unit": "nM"}, {"measurement": "functional character at MOR", "setting": "[6]", "result": "low, but measurable, partial agonist activity"}, {"measurement": "Emax", "setting": "[6]; read-out: MOR Emax ± SEM (%)", "result": "23.8 ± 6.7", "unit": "%"}, {"measurement": "Emax", "setting": "[6]; read-out: Emax at MOR (FIG. 1)", "result": 24, "unit": "%"}, {"measurement": "EC50", "setting": "[6]; read-out: MOR EC50 ± SEM", "result": 1220, "unit": "nM"}]}
{"smiles": "CC[C@@H]1CN2CCc3c([nH]c4ccccc34)[C@@H]2C[C@@H]1/C(=C\\OC)C(=O)OC", "note": "[Corynantheidine, reference compound]", "values": [{"measurement": "SR: Selectivity Ratio (KiMOR/Kiα2A)", "setting": "[1]; Table 3-1", "result": 0.97}, {"measurement": "Ki", "setting": "[1]; [7]", "result": "450 ± 100", "unit": "nM"}, {"measurement": "Ki", "setting": "[1]; Table B1′, read-out: MOR Ki ± SEM", "result": "2520 ± 372", "unit": "nM"}, {"measurement": "Ki", "setting": "[2]; [8]", "result": "4060 ± 969", "unit": "nM"}, {"measurement": "Ki", "setting": "[2]; Table B1′, read-out: KOR Ki ± SEM", "result": "1030 ± 162", "unit": "nM"}, {"measurement": "Ki", "setting": "[3]; [9]", "result": "2790 ± 171", "unit": "nM"}, {"measurement": "Ki", "setting": "[3]; Table B1′, read-out: DOR Ki ± SEM", "result": "2410 ± 1200", "unit": "nM"}, {"measurement": "Ki", "setting": "[4]; Table 3-1, 3 independent experiments, read-out: Ki (nM ± SEM) a2A-AR", "result": "351 ± 58.7", "unit": "nM"}, {"measurement": "Ki", "setting": "[4]; Table B1′, read-out: alpha2A Ki ± SEM", "result": "68 ± 12", "unit": "nM"}, {"measurement": "Ki", "setting": "[5]; Table 3-1", "result": "135 ± 12.5", "unit": "nM"}, {"measurement": "Emax", "setting": "[6]; read-out: MOR Emax ± SEM (%)", "result": "8.32 ± 3.4", "unit": "%"}]}
